Entries after “also recorded” stand apart in the source; their conditions may differ. No end group written: not given here.
Assays:
[1] = tested on: CD8+ CTL line specific for HLA-A2; assay: Cytotoxicity assay: inhibition of lysis by established CTL (51Cr-labeled JY targets); type: cell-based, human
Protocol: CTL assays were performed as described using ^51Cr-labeled EBV transformed B cells expressing the appropriate HLA allele as targets [[…] et al., J. Immunol. (1982) 129:2001]. In the present protocol, a CD8+ CTL line specific for HLA-A2 was tested in the presence of various peptides for lysis of ^51Cr-labeled JY targets. Peptides were added to a final concentration of 100 μg/ml at the initiation of the 4 h assay. Each determination was the mean of triplicate wells.

rat splenocytes = assay: Differentiation of rat splenocytes into allospecific CTL in vitro; type: cell-based
[2] = tested on: abdominal heterotopic heart allografts; assay: Cardiac allograft survival in rats (Lew heart into ACI recipients); type: in vivo, rat; details: peptide in the two weeks before or 4 days after surgery plus CsA on days 0-4, rats
Description: Vascularized cardiac allografts were heterotypically transplanted into the abdomen of recipient rats using a modification of the technique of Ono and Lindsay (Ono and Lindsey J. Thorac. Cardiovasc. Surg. (1969) 57:225). Abdominal allografts were palpated on a daily basis to assess graft function, and rejection was deemed complete when palpable ventricular contractions ceased.
Cyclosporin A (CsA, Sandoz Pharmaceuticals Corporation, Base, Switzerland) dissolved in olive oil was given orally through a gavage tube at the indicated dose. Peptides were dissolved in water or saline and given intravenously or by gavage as indicated.
Since the B7.75-84 and B2702.75-84 peptides blocked cellular immunity in vivo, we examined their effects on allograft survival in rats. ACI (RT1^a) recipients were given abdominal heterotopic heart allografts from Lew donors (Moeller et al. 1993, supra; Ono and Lindsey. 1969, supra). Graft function was monitored by daily abdominal palpation, and rejection was scored as complete when the palpable ventricular contractions ceased.

purified T cells = assay: Proliferation of purified T cells stimulated by immobilized anti-CD3; type: cell-based, human; details: immobilized anti-CD3 antibody
Protocol: PBL were isolated from normal donors by centrifugation over Ficoll-Hypaque. In some cases, T cells were purified from this preparation using the method of Secrist et al. [J Exp. Med. (1993) 178:2123]. Briefly, cells isolated over Ficoll-Hypaque were incubated for 1 hour in Petri dishes. Nonadherent cells were passed over a nylon wool column and the resulting population was >90% CD3+ by FACS analysis. CD8+ CTL lines specific for HLA-A2, B7, B27, B48, or Cw4 were generated and maintained in long-term culture as previously described [Buxton et al., J Exp. Med. (1992) 175:809; Wesley et al., Hum. Immunol. (1993) 36:149]. Jurkat E6-1 and the T cell receptor negative Jurkat, JRT3-T3.5, were obtained from the American Type Culture Collection (ATCC; Rockville, Md.). […]
10^5 cells were added to microtiter wells that had been coated with anti-CD3 (Sigma, St. Louis, Mo.) at 5 μg/ml. […] Plates were harvested on a PHD Cell Harvester 24 hours later and [^3H]-thymidine incorporation determined by scintillation counting.
Peptides were evaluated for effects on the proliferation of purified T cells stimulated by immobilized anti-CD3 antibody. […]

draining lymph nodes = assay: Lymph node proliferation assay (footpad challenge with allogeneic versus syngeneic splenocytes); type: in vivo, rat; details: treated within 24 hours of footpad injection
Protocol: ACI or PVG rats (200 g) were injected intravenously with peptides dissolved in saline on day 0. On the indicated days thereafter, the left rear footpads of the rats were injected with 5×10^6 splenocytes from a syngeneic donor and the right rear footpads with 5×10^6 splenocytes from an allogeneic Lew donor (Moeller etal. Transplantation (1993)55:650). See also Twist and Barnes Transplantation (1973) 15:182; Fanslow et al. Science (1990) 248:739). Seven days after the footpad injection, the animals were sacrificed and the popliteal lymph nodes removed. A single cell suspension was prepared, and the cell number determined using a hemocytometer.
PVG or ACI rats (3 per group) were given a single intravenous injection of 2 mg of each of the four peptides or saline. On the day of treatment, or on days 1, 7, or 10 after treatment, the right footpads were injected with 5×10^6 syngeneic splenocytes while the left footpads were injected with 5×10^6 allogeneic Lew splenocytes. Seven days after the footpad injections, the draining lymph nodes were removed, a single cell suspension was prepared, and the cell number determined.

[3] = tested on: Lew specific CTL precursors in splenocytes; assay: Limiting dilution assay for CTL precursors in splenocytes of treated rats; type: in vivo, rat; details: treated on the day of splenectomy or 24 hours earlier
Protocol: The effect of peptides on CTL precursor frequencies in splenocytes was tested as follows. Limiting dilution analysis was carried out essentially as described (Moeller et al. 1993, supra; Skinner and Marbrook. J. Exp. Med. (1976) 143:1562). Briefly, spleens were removed from naive animals or from animals that had received an allograft a minimum of 60 days earlier and then teased into a single cell suspension. Responder cells were plated from 1000 to 40,000 cells per well (24 replicates per concentration) into round bottom microliter wells in RPMI 1640 supplemented with 10% fetal bovine serum (Hyclone, Logan, Utah), 2 mM L-glutamine, 5×10^5M μ-mercaptoethanol, 100 U/ml penicillin, 100 μg/ml streptomycin, 20% supernatant from Concanavalin A activated rat spleen cells, and 50 μM α-methyl mannoside. Then, 5×10^5 irradiated (2000 rads) stimulator cells were added to each well and plates were incubated in a humidified CO2 incubator. […] Aliquots of supernatant were counted in a gamma counter and CTL precursor frequency determined by linear regression (Skinner and Marbrook. 1976, supra). […]
PVG (RT1^c) or ACI (RT1^a) rats were treated with a single intravenous injection of saline or 2 mg of A2.75-84, B7.75-84, B2702.75-84, or RT1^a.75-84 peptide. […] CTL precursor frequency was determined by linear regression analysis.

| Substance | inhibition of lysis by established CTL ([1]; HLA-A2 specific CD8+ CTL, 51Cr-labeled JY targets, peptide 100 μg/ml, 4 h assay) | blocking of differentiation of rat splenocytes into allospecific CTL (rat splenocytes) | allograft rejection under peptide in combination with CsA [2] | inhibition of proliferation of purified T cells (3H-thymidine incorporation) (purified T cells) | ratio of the number of cells recovered, allogeneic versus syngeneic side (draining lymph nodes) | precursor frequency of Lew specific cells compared with saline [3] | potency relative to B2702.75-84, based on the concentration required to achieve 50% inhibition of cytotoxicity [1] |
| --- | --- | --- | --- | --- | --- | --- | --- |
| B2702.75-84: synthetic peptide, HLA-B2702 residues 75-84, sequence RENLRIALRY [Peptide B2702.75-84] | inhibited lysis by established CTL | blocked the differentiation of rat splenocytes into allospecific CTL in vitro | rejected similarly to allografts in animals treated with CsA alone; also recorded: did not show prevention of allograft rejection | do not | A similar ratio | The same frequency | – |
| WDRETQICKAKAQTDRENLRIALRY [Peptide B2702.60-84] | – | – | – | – | – | – | approximately 5 fold |

Source: patent US6436903B1, “Immunomodulating compounds comprising d-isomers of amino acids” (Stanford University (Board of Trustees of the Leland …, priority 1996, dated 2002)
